≈ marks a conversion by molar mass, not a printed value. Calls of active or inactive are those of the source. No cut-off for these calls is given here.
Assays:
[1] = system: Mycobacterium tuberculosis; test: Antimicrobial activity against 3 weeks old culture of Mycobacterium tuberculosis H37Ra assessed as colony forming unit in hypoxic condition at 2 ug/ml for 3 hrs; assay type: functional
[2] = system: Mycobacterium tuberculosis; test: Antimicrobial activity against 3 weeks old culture of Mycobacterium tuberculosis H37Ra assessed as colony forming unit in aerobic condition at 2 ug/ml for 3 hrs; assay type: functional
[3] = system: Mycobacterium tuberculosis; test: Antimicrobial activity against 2 months old culture of Mycobacterium tuberculosis H37Ra assessed as colony forming unit at 10 ug/ml for 3 days at pH 5.5; assay type: functional
[4] = system: Mycobacterium tuberculosis; test: Antimicrobial activity against 2 months old culture of Mycobacterium tuberculosis H37Ra assessed as colony forming unit at 3.3 ug/ml for 3 days at pH 7; assay type: functional
[5] = system: Mycobacterium tuberculosis; test: Antimicrobial activity against 1 month old culture of Mycobacterium tuberculosis H37Ra assessed as colony forming unit at 10 ug/ml for 3 days at pH 5.5; assay type: functional
[6] = system: Mycobacterium tuberculosis; test: Antimicrobial activity against 3 weeks old culture of Mycobacterium tuberculosis H37Ra assessed as colony forming unit at 3.3 ug/ml for 3 days at pH 5.5; assay type: functional
[7] = system: Mycolicibacterium smegmatis; test: Antimicrobial activity against Mycobacterium smegmatis mc26; assay type: functional
[8] = system: Mycobacterium tuberculosis; test: Antimicrobial activity against 3 weeks old culture of Mycobacterium tuberculosis H37Ra assessed as colony forming unit at 3.3 ug/ml for 3 days at pH 7; assay type: functional
[9] = system: Mycobacterium tuberculosis; test: Antimicrobial activity against 3 weeks old culture of Mycobacterium tuberculosis H37Ra assessed as colony forming unit in aerobic condition at 3.3 ug/ml for 3 hrs; assay type: functional
[10] = system: Mycobacterium tuberculosis; test: Antimicrobial activity against 2 months old culture of Mycobacterium tuberculosis H37Ra assessed as colony forming unit at 5 ug/ml for 3 days at pH 5.5; assay type: functional
[11] = system: Mycobacterium tuberculosis; test: Antimicrobial activity against 3 weeks old culture of Mycobacterium tuberculosis H37Ra assessed as colony forming unit in hypoxic condition at 3.3 ug/ml for 3 hrs; assay type: functional
[12] = system: Mycobacterium tuberculosis; test: Antimicrobial activity against Mycobacterium tuberculosis H37Rv assessed as drug concentration required to kill 99% of the inoculum; assay type: functional
[13] = system: Escherichia coli; test: Antimicrobial activity against Escherichia coli DH5alpha; assay type: functional
[14] = system: Mycobacterium tuberculosis; test: Antimicrobial activity against 2 months old culture of Mycobacterium tuberculosis H37Ra assessed as colony forming unit at 3.3 ug/ml for 3 days at pH 5.5; assay type: functional
[15] = system: Mycobacterium tuberculosis; test: Antimicrobial activity against Mycobacterium tuberculosis H37Rv; assay type: functional
[16] = system: Mycobacterium tuberculosis; test: Antimicrobial activity against 3 weeks old culture of Mycobacterium tuberculosis H37Ra assessed as colony forming unit in aerobic condition at 10.3 ug/ml for 3 hrs; assay type: functional
[17] = system: Mycobacterium tuberculosis; test: Antimicrobial activity against 3 weeks old culture of Mycobacterium tuberculosis H37Ra assessed as colony forming unit in hypoxic condition at 10.3 ug/ml for 3 hrs; assay type: functional
[18] = system: Mycobacterium tuberculosis; test: Antimicrobial activity against 2 months old culture of Mycobacterium tuberculosis H37Ra assessed as colony forming unit at 100 ug/ml for 3 days at pH 5.5; assay type: functional
[19] = system: Mycobacterium tuberculosis; test: Antimicrobial activity against 2 weeks old culture of Mycobacterium tuberculosis H37Ra assessed as colony forming unit at 100 ug/ml for 3 days at pH 5.5; assay type: functional
[20] = system: Mycobacterium tuberculosis; test: Antimicrobial activity against 3 weeks old culture of Mycobacterium tuberculosis H37Ra assessed as colony forming unit in aerobic condition at 4.5 ug/ml for 3 hrs; assay type: functional
[21] = system: Mycobacterium tuberculosis; test: Antimicrobial activity against 3 weeks old culture of Mycobacterium tuberculosis H37Ra assessed as colony forming unit at 4.5 ug/ml for 3 days at pH 5.5; assay type: functional
[22] = system: Mycobacterium tuberculosis; test: Antimicrobial activity against 2 months old culture of Mycobacterium tuberculosis H37Ra assessed as colony forming unit at 4.5 ug/ml for 3 days at pH 7; assay type: functional
[23] = system: Mycobacterium tuberculosis; test: Antimicrobial activity against 3 weeks old culture of Mycobacterium tuberculosis H37Rv assessed as 1:4 serum inhibitory titers treated with blood from 100 mg/kg, po dosed Swiss mouse collected after 2 hrs; assay type: functional, organism-based; design: dose 100 mg/kg
[24] = system: Mycobacterium tuberculosis; test: Antimicrobial activity against Mycobacterium tuberculosis infected in human monocytes; assay type: functional
[25] = system: Mycobacterium tuberculosis; test: Antimicrobial activity against 3 weeks old culture of Mycobacterium tuberculosis H37Ra assessed as colony forming unit at 4.5 ug/ml for 3 days at pH 7; assay type: functional
[26] = system: Mycobacterium tuberculosis; test: Antimicrobial activity against 2 months old culture of Mycobacterium tuberculosis H37Ra assessed as colony forming unit at 4.5 ug/ml for 3 days at pH 5.5; assay type: functional
[27] = system: Mycobacterium tuberculosis; test: Antimicrobial activity against 3 weeks old culture of Mycobacterium tuberculosis H37Ra assessed as colony forming unit in hypoxic condition at 4.5 ug/ml for 3 hrs; assay type: functional
[28] = system: Mycobacterium tuberculosis; test: Antimicrobial activity against 3 weeks old culture of Mycobacterium tuberculosis H37Rv assessed as 1:2 serum inhibitory titers treated with blood from 100 mg/kg, po dosed Swiss mouse collected after 2 hrs; assay type: functional, organism-based; design: dose 100 mg/kg
[29] = system: Mycobacterium tuberculosis; test: Antimicrobial activity against 3 weeks old culture of Mycobacterium tuberculosis H37Rv assessed as 1:16 serum inhibitory titers treated with blood from 25 mg/kg, po dosed Swiss mouse collected after 1 hrs; assay type: functional, organism-based; design: dose 25 mg/kg

Compound: CO[C@H]1/C=C/O[C@@]2(C)Oc3c(C)c(O)c4c(O)c(c(/C=N/N5CCN(C)CC5)c(O)c4c3C2=O)NC(=O)/C(C)=C\C=C\[C@H](C)[C@H](O)[C@@H](C)[C@@H](O)[C@@H](C)[C@H](OC(C)=O)[C@@H]1C [RIFAMPIN]
- log10CFU/ml [1]: 6.36
- log10CFU/ml [2]: 4.63
- log10CFU/ml [3]: 1.32

Compound: S=C(S)N1CCCC1 [PYRROLIDINE DITHIOCARBAMATE]
- log10CFU/ml [4]: 0.94
- log10CFU/ml [5]: 0.06
- log10CFU/ml [6]: 0.89
- MIC [7]: 16 µg/mL (≈ 109 µM)
- log10CFU/ml [8]: 2.65
- log10CFU/ml [9]: 6.19
- log10CFU/ml [10]: 0.42
- log10CFU/ml [11]: 7.1
- Activity [12]: 0.5 µg/mL
- MIC [13]: 64 µg/mL (≈ 435 µM)
- log10CFU/ml [14]: 0.13
- MBC [15]: 0.5 µg/mL (≈ 3.4 µM)
- MIC [15]: 0.125 µg/mL (≈ 0.849 µM)

Compound: C(=NC1CCCCC1)=NC1CCCCC1 [DICYCLOHEXYLCARBODIIMIDE]
- log10CFU/ml [16]: 7.43
- log10CFU/ml [17]: 7.37

Compound: NC(=O)c1cnccn1 [PYRAZINAMIDE]
- log10CFU/ml [18]: 0.08
- log10CFU/ml [19]: 0.26

Compound: CCN(CC)C(=S)SSC(=S)N(CC)CC [DISULFIRAM]
- MIC [15]: 8 µg/mL (≈ 27 µM)

Compound: CCN(CC)C(=S)[S-].[Na+] [DITIOCARB SODIUM]
- log10CFU/ml [20]: 6.03
- log10CFU/ml [21]: 1.28
- log10CFU/ml [5]: 0.14
- log10CFU/ml [22]: 1.73
- Activity [23]: Active
- log10CFU/ml [10]: 0.96
- MIC [24]: 1 µg/mL
- log10CFU/ml [25]: 2.07
- log10CFU/ml [26]: 3.18
- log10CFU/ml [27]: 7.22
- Activity [28]: Active
- MBC [15]: 8 µg/mL
- MIC [15]: 4 µg/mL

Compound: NNC(=O)c1ccncc1 [ISONIAZID]
- Activity [12]: 0.25 µg/mL
- Activity [29]: Active
- MBC [15]: 0.12 µg/mL (≈ 0.875 µM)
- MIC [15]: 0.06 µg/mL (≈ 0.438 µM)

From ChEMBL document CHEMBL1137667, “Pyrrolidine dithiocarbamate and diethyldithiocarbamate are active against growing and nongrowing persister Mycobacterium tuberculosis” (2007)
